Laboratory results published in US20090226398A1, “ANTI-VIRAL COMPOUNDS, COMPOSITIONS, AND METHODS OF USE” (Genelabs Technologies, Inc., priority 2008, published 2009).

Tested on: HCV replication
Test: Replicon Assay (Huh-lucubineo-ET cells, luciferase readout)
Type: cell-based
Conditions: Hepatitis C virus; ET (Huh-lucubineo-ET) HCV replicon cell line; luciferase activity 48-72 hours after compound addition; 6 dilutions
Procedure: A cell line, ET (Huh-lucubineo-ET) was used for screening of compounds of the present invention for inhibition of HCV replication. The ET cell line was stably transfected with RNA transcripts harboring a I389luc-ubi-neo/NS3-3′/ET; replicon with firefly luciferase-ubiquitin-neomycin phosphotransferase fusion protein and EMCV-IRES driven NS3-5B polyprotein containing the cell culture adaptive mutations (E1202G; T1280I; K1846T) (Krieger at al, 2001 and unpublished). The ET cells were grown in DMEM, supplemented with 10% fetal calf serum, 2 mM Glutamine, Penicillin (100 IU/mL)/Streptomycin (100 μg/mL), 1× nonessential amino acids, and 250 μg/mL G418 (“Geneticin”). They were all available through Life Technologies (Bethesda, Md.). The cells were plated at 0.5−1.0×10^4 cells/well in the 96 well plates and incubated for 24 hrs before adding the test compounds. The compounds were then added to the cells to achieve a final concentration of 5 or 50 μM. Luciferase activity was measured 48-72 hours later by adding a lysis buffer and the substrate (Catalog number Glo-lysis buffer E2661 and Bright-Glo luciferase system E2620 Promega, Madison, Wis.). Cells should not be too confluent during the assay. Percent inhibition of replication was plotted relative to no compound control. For EC50 (effective concentration at which 50% of the maximum inhibition is observed) determinations, 6 dilutions of each compound were used. Compounds were typically diluted 3 fold to span a concentration range of 250 fold. EC50 and similarly TC50 values were calculated by fitting % inhibition at each concentration to the following equation:
% inhibition=100%/[(EC50/[I])^b+1]
where b is Hill's coefficient.

Row | Compound | EC50 [µM]
1 | COc1ccc(-c2ccc(Cn3cc4nc(-c5cccc(F)c5F)nc-4cn3)c(-c3ccc(OC)cc3C(F)(F)F)n2)c(C(F)(F)F)c1 [Compound 252, 5-[2,6-Bis-(4-methoxy-2-trifluoromethyl-phenyl)-pyridin-3-ylmethyl]-2-(2,3-difluoro-phenyl)-5H-imidazo[4,5-d]pyridazine] | 2.64
2 | Fc1cccc(-c2nc3cnn(Cc4ccc(-c5ccc(C(F)(F)F)cc5)nc4)cc-3n2)c1F [Compound 253, 2-(2,3-Difluoro-phenyl)-5-[6-(4-trifluoromethyl-phenyl)-pyridin-3-ylmethyl]-5H-imidazo[4,5-d]pyridazine] | ≥ 50
3 | Fc1cc(C(F)(F)F)ccc1-c1ccc(Cn2cc3nc(-c4cccc(F)c4F)nc-3cn2)nc1 [Compound 254, 2-(2,3-Difluoro-phenyl)-5-[5-(2-fluoro-4-trifluoromethyl-phenyl)-pyridin-2-ylmethyl]-5H-imidazo[4,5-d]pyridazine] | ≥ 50
4 | COc1ccc(-c2ccc(Cn3cc4nc(-c5cccc(F)c5F)nc-4cn3)c(Cl)n2)c(C(F)(F)F)c1 [Compound 255, 5-[2-Chloro-6-(4-methoxy-2-trifluoromethyl-phenyl)-pyridin-3-ylmethyl]-2-(2,3-difluoro-phenyl)-5H-imidazo[4,5-d]pyridazine] | 0.069
5 | Fc1cccc(-c2nc3cnn(Cc4cccc(-c5ccc(C(F)(F)F)cc5C(F)(F)F)c4)cc-3n2)c1F [Compound 256, 5-(2′,4′-Bis-trifluoromethyl-biphenyl-3-ylmethyl)-2-(2,3-difluoro-phenyl)-5H-imidazo[4,5-d]pyridazine] | 9.79
6 | Fc1cc(-c2ccc(C(F)(F)F)cc2C(F)(F)F)ccc1Cn1cc2nc(-c3cccc(F)c3F)nc-2cn1 [Compound 257, 2-(2,3-Difluoro-phenyl)-5-(3-fluoro-2′,4′-bis-trifluoromethyl-biphenyl-4-ylmethyl)-5H-imidazo[4,5-d]pyridazine] | 0.045
7 | COc1ccc(-c2ccc(Cn3cc4nc(-c5cccc(F)c5F)nc-4cn3)cc2[N+](=O)[O-])c(C(F)(F)F)c1 [Compound 258, 2-(2,3-Difluoro-phenyl)-5-(4′-methoxy-2-nitro-2′-trifluoromethyl-biphenyl-4-ylmethyl)-5H-imidazo[4,5-d]pyridazine] | 0.228
8 | COc1ccc(-c2ccc(Cn3cc4nc(-c5cccc(F)c5F)nc-4cn3)c(F)c2)c(C(F)(F)F)c1 [Compound 259, 2-(2,3-Difluoro-phenyl)-5-(3-fluoro-4′-methoxy-2′-trifluoromethyl-biphenyl-4-ylmethyl)-5H-imidazo[4,5-d]pyridazine] | 0.02
9 | CCCOc1ccc(-c2ccc(Cn3cc4nc(-c5cccc(F)c5F)nc-4cn3)cc2[N+](=O)[O-])cc1 [Compound 260, 2-(2,3-Difluoro-phenyl)-5-(2-nitro-4′-propoxy-biphenyl-4-ylmethyl)-5H-imidazo[4,5-d]pyridazine] | 0.146
10 | COc1ccc(-c2ccc(Cn3cc4nc(-c5cccc(F)c5F)nc-4cn3)cc2F)c(C(F)(F)F)c1 [Compound 261, 2-(2,3-Difluoro-phenyl)-5-(2-fluoro-4′-methoxy-2′-trifluoromethyl-biphenyl-4-ylmethyl)-5H-imidazo[4,5-d]pyridazine] | 0.05
11 | Fc1cccc(-c2nc3cnn(Cc4ccc(Br)cn4)cc-3n2)c1F [Compound 262, 5-(5-bromo-pyridin-2-ylmethyl)-2-(2,3-difluoro-phenyl)-5H-imidazo[4,5-d]pyridazine] | ≥ 50
12 | Fc1cccc(-c2nc3cnn(Cc4ccc(C(F)(F)F)cc4C(F)(F)F)cc-3n2)c1F [Compound 263, 5-(2,4-Bis-trifluoromethyl-benzyl)-2-(2,3-difluoro-phenyl)-5H-imidazo[4,5-d]pyridazine] | ≥ 50
13 | N#Cc1ccccc1-c1ccc(Cn2cc3nc(-c4cccc(F)c4F)nc-3cn2)cc1 [Compound 264, 4′-[2-(2,3-Difluoro-phenyl)-imidazo[4,5-d]pyridazin-5-ylmethyl]-biphenyl-2-carbonitrile] | 0.892
14 | COc1ccc(-c2cnc(Cn3cc4nc(-c5cccc(F)c5F)nc-4cn3)nc2)c(C(F)(F)F)c1 [Compound 265, 2-(2,3-Difluoro-phenyl)-5-[5-(4-methoxy-2-trifluoromethyl-phenyl)-pyrimidin-2-ylmethyl]-5H-imidazo[4,5-d]pyridazine] | 0.228
15 | CCCOc1ccc(-c2cnc(Cn3cc4nc(-c5cccc(F)c5F)nc-4cn3)nc2)c(C(F)(F)F)c1 [Compound 266, 2-(2,3-Difluoro-phenyl)-5-[5-(4-propoxy-2-trifluoromethyl-phenyl)-pyrimidin-2-ylmethyl]-5H-imidazo[4,5-d]pyridazine] | 0.218
16 | Fc1ccccc1-c1nc2cnn(Cc3ccc(-c4ccc(C(F)(F)F)cc4C(F)(F)F)cn3)cc-2n1 [Compound 267, 5-[5-(2,4-Bis-trifluoromethyl-phenyl)-pyridin-2-ylmethyl]-2-(2-fluoro-phenyl)-5H-imidazo[4,5-d]pyridazine] | 1.3

Row | Compound | EC50 [µM]
17 | Cc1nc(-c2ccc(Cn3cc4nc(-c5cccc(F)c5F)nc-4cn3)cc2)cs1 [Compound 268, 2-(2,3-Difluoro-phenyl)-5-[4-(2-methyl-thiazol-4-yl)-benzyl]-5H-imidazo[4,5-d]pyridazine] | ≥ 50
18 | Fc1cccc(-c2nc3cnn(CCCCc4ccc(C(F)(F)F)cc4C(F)(F)F)cc-3n2)c1F [Compound 269, 5-[4-(2,4-Bis-trifluoromethyl-phenyl)-butyl]-2-(2,3-difluoro-phenyl)-5H-imidazo[4,5-d]pyridazine] | 25
19 | Fc1cccc(-c2nc3cnn(CCCc4ccc(C(F)(F)F)cc4C(F)(F)F)cc-3n2)c1F [Compound 270, 5-[3-(2,4-Bis-trifluoromethyl-phenyl)-propyl]-2-(2,3-difluoro-phenyl)-5H-imidazo[4,5-d]pyridazine] | 52.5
20 | COc1ccc(-c2ncc(Cn3cc4nc(-c5cccc(F)c5F)nc-4cn3)cn2)c(C(F)(F)F)c1 [Compound 271, 2-(2,3-Difluoro-phenyl)-5-[2-(4-methoxy-2-trifluoromethyl-phenyl)-pyrimidin-5-ylmethyl]-5H-imidazo[4,5-d]pyridazine] | 0.049
21 | Fc1cccc(-c2nc3cnn(Cc4ccc(-c5ccsc5)cc4)cc-3n2)c1F [Compound 272, 2-(2,3-Difluoro-phenyl)-5-(4-thiophen-3-yl-benzyl)-5H-imidazo[4,5-d]pyridazine] | 18.7
22 | O=C(Nc1ccccc1)c1ccc(Cn2cc3nc(-c4cccc(F)c4F)nc-3cn2)cc1 [Compound 273, 4-[2-(2,3-Difluoro-phenyl)-imidazo[4,5-d]pyridazin-5-ylmethyl]-N-phenyl-benzamide] | ≥ 50
23 | COc1ccc(NC(=O)c2ccc(Cn3cc4nc(-c5cccc(F)c5F)nc-4cn3)cc2)cc1 [Compound 274, 4-[2-(2,3-Difluoro-phenyl)-imidazo[4,5-d]pyridazin-5-ylmethyl]-N-(4-methoxy-phenyl)-benzamide] | ≥ 50
24 | O=S(=O)(c1ccc(Cn2cc3nc(-c4cccc(F)c4F)nc-3cn2)cc1)N1CCOCC1 [Compound 275, 2-(2,3-Difluoro-phenyl)-5-[4-(morpholine-4-sulfonyl)-benzyl]-5H-imidazo[4,5-d]pyridazine] | ≥ 50
25 | Fc1cccc(-c2nc3cnn(Cc4ccc5nsnc5c4)cc-3n2)c1F [Compound 276, 5-Benzo[1,2,5]thiadiazol-5-ylmethyl-2-(2,3-difluoro-phenyl)-5H-imidazo[4,5-d]pyridazine] | ≥ 50
26 | Cc1nc(-c2ccc(Cn3cc4nc(-c5cccc(F)c5F)nc-4cn3)cc2)no1 [Compound 277, 2-(2,3-Difluoro-phenyl)-5-[4-(5-methyl-[1,2,4]oxadiazol-3-yl)-benzyl]-5H-imidazo[4,5-d]pyridazine] | ≥ 50
27 | Fc1cccc(-c2nc3cnn(Cc4ccc5ccccc5c4)cc-3n2)c1F [Compound 278, 2-(2,3-Difluoro-phenyl)-5-naphthalen-2-ylmethyl-5H-imidazo[4,5-d]pyridazine] | ≥ 50
28 | Fc1cccc(-c2nc3cnn(Cc4cccc(Oc5ccccc5)c4)cc-3n2)c1F [Compound 279, 2-(2,3-Difluoro-phenyl)-5-(3-phenoxy-benzyl)-5H-imidazo[4,5-d]pyridazine] | 20
29 | Fc1cccc(-c2nc3cnn(Cc4ccc(OCc5ccccc5)cc4)cc-3n2)c1F [Compound 280, 5-(4-Benzyloxy-benzyl)-2-(2,3-difluoro-phenyl)-5H-imidazo[4,5-d]pyridazine] | ≥ 50
30 | Fc1cccc(-c2nc3cnn(Cc4ccc(/C=C/c5ccccc5)cc4)cc-3n2)c1F [Compound 281, 2-(2,3-Difluoro-phenyl)-5-(4-styrylbenzyl)-5H-imidazo[4,5-d]pyridazine] | 1.8
31 | Fc1cccc(-c2nc3cnn(Cc4ccc(-c5ccccc5)cc4)cc-3n2)c1F [Compound 282, 5-Biphenyl-4-ylmethyl-2-(2,3-difluoro-phenyl)-5H-imidazo[4,5-d]pyridazine] | 0.69
32 | Fc1cccc(-c2nc3cnn(Cc4ccc5occc5c4)cc-3n2)c1F [Compound 283, 5-Benzofuran-5-ylmethyl-2-(2,3-difluoro-phenyl)-5H-imidazo[4,5-d]pyridazine] | ≥ 50
